Results on 13 molecules are retold here after patent US11739098B2 (BRISTOL-MYERS SQUIBB COMPANY, priority 2017, dated 2023).

Common to all, as to format: cell-based
For one assay, the target named is T1, human TLR7 (Homo sapiens, UniProt Q9NYK1).
T1 construct: host or cells: HEK-Blue cells (HEK293-derived reporter line)
T1 sequence (Q9NYK1 27-1049): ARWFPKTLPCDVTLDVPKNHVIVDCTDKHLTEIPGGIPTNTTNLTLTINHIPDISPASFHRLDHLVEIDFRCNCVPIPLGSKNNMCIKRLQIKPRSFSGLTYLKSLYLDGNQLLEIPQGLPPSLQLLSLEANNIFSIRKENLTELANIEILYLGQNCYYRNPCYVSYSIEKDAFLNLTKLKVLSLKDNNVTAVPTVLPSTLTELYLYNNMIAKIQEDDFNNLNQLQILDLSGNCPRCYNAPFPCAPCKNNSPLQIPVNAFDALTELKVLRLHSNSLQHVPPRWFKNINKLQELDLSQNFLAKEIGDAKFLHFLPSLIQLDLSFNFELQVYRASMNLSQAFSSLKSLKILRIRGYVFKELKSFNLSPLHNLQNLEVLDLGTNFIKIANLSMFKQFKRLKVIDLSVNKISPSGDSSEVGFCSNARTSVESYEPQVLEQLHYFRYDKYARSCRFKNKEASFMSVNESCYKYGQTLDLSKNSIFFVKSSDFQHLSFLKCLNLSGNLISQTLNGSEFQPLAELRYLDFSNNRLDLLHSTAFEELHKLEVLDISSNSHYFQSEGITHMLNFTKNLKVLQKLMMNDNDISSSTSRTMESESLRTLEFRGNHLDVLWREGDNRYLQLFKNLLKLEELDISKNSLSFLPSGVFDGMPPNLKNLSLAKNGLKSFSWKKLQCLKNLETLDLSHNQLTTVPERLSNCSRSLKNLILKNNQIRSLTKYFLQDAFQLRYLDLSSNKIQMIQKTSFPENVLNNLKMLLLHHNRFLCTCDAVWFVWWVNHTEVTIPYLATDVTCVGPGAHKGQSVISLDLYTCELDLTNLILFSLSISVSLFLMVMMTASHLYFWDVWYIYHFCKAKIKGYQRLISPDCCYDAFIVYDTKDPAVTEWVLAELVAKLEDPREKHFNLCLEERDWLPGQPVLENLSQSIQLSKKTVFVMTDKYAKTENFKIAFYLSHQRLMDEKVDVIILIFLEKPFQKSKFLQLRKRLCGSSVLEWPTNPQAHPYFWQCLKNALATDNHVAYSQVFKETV
In words: TLR7 inhibition reporter assay (HEK-Blue cells, SEAP reporter, gardiquimod stimulation). The settings on record: HEK-Blue cells overexpressing human TLR7, SEAP reporter, gardiquimod 7.5 μM. An outline of the steps: (§1)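 Percent inhibition of agonist-induced SEAP secretion in HEK-Blue cells after 22 h at 37 °C. Stimuli: 7.5 μM gardiquimod, 15.9 μM R848, 5 nM ODN2006 for TLR7, TLR8 and TLR9, added after 30 min compound exposure over a 0.05 nM–50 μM range.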
Background: In a reporter assay the amount or activity of a reporter protein is the signal.

Another assay has as its target T2, human TLR8 (Homo sapiens, UniProt Q9NR97).
T2 construct: host or cells: HEK-Blue cells (HEK293-derived reporter line)
T2 sequence (Q9NR97 27-1041): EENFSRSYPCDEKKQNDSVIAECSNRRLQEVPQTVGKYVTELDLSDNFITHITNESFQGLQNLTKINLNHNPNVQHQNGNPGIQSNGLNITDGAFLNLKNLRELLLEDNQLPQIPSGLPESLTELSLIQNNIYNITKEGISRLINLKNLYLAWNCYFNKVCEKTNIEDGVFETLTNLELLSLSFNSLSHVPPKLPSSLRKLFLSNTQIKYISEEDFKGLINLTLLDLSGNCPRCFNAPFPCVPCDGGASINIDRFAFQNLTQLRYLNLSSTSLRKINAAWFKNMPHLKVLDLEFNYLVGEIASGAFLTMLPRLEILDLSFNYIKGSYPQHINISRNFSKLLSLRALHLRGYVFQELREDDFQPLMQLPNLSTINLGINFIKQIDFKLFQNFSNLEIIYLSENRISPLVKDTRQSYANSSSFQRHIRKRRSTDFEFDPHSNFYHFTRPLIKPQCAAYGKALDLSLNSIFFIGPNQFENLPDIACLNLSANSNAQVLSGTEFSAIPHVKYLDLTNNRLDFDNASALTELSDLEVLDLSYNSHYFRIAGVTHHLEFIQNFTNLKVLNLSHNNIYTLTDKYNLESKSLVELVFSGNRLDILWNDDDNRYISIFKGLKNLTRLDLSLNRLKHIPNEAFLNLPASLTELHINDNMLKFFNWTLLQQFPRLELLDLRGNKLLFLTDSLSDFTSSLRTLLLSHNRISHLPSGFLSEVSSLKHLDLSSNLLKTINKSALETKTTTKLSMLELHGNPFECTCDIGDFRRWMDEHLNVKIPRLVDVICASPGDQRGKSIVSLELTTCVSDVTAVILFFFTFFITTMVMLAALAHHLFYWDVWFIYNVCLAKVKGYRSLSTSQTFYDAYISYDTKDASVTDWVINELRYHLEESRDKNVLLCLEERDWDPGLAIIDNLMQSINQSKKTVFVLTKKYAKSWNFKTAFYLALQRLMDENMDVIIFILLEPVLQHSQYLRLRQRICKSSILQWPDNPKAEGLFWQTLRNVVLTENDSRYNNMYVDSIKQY
In words: TLR8 inhibition reporter assay (HEK-Blue cells, SEAP reporter, R848 stimulation). The settings on record: HEK-Blue cells overexpressing human TLR8, SEAP reporter, R848 15.9 μM. An outline of the steps:
as §1

The next assay concerns the target T3, human TLR9 (Homo sapiens, UniProt Q9NR96).
T3 construct: host or cells: HEK-Blue cells (HEK293-derived reporter line)
T3 sequence (Q9NR96 26-1032): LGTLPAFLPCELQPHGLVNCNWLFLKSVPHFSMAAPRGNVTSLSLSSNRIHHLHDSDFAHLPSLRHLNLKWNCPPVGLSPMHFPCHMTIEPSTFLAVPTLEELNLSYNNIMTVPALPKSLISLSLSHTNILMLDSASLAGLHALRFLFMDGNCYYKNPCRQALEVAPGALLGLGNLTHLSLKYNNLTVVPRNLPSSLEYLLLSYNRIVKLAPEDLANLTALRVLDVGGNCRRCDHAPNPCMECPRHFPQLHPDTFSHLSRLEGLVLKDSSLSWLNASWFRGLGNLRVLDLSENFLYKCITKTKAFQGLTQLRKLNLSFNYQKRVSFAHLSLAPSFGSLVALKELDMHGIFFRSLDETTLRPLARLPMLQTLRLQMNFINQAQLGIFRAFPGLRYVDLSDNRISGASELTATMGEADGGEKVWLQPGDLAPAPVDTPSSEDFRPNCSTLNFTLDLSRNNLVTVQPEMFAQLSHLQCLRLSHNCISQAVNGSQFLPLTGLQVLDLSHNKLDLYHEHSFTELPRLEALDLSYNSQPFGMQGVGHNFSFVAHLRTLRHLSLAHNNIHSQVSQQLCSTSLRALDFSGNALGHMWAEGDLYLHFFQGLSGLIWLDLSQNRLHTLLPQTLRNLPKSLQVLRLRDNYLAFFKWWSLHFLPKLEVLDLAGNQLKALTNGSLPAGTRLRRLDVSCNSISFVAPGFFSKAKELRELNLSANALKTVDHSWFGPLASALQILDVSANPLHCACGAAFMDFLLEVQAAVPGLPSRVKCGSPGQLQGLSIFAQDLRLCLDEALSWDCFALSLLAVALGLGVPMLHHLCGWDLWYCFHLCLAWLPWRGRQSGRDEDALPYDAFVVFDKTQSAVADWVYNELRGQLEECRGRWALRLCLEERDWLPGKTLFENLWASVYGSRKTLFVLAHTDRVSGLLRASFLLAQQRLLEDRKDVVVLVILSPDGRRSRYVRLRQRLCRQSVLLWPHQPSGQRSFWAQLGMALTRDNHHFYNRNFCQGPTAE
Description: TLR9 inhibition reporter assay (HEK-Blue cells, SEAP reporter, ODN2006 stimulation). The settings on record: HEK-Blue cells overexpressing human TLR9, SEAP reporter, ODN2006 5 nM. An outline of the steps: as §1

By IC50 is commonly meant the concentration at which inhibition is half-maximal. High values mean weaker potency in that assay, low ones greater potency in that assay.

SMILES strings stand for the structures.

As to `Cc1cc(-c2[nH]c3ccc(C4CCN(CC(=O)N(C)C)CC4)cc3c2C(C)C)cn2cc(C(=O)N(C)CCO)nc12` [Example 344, 6-(5-(1-(2-(dimethylamino)-2-oxoethyl)piperidin-4-yl)-3-isopropyl-1H-indol-2-yl)-N-(2-hydroxyethyl)-N,8-dimethylimidazo[1,2-a]pyridine-2-carboxamide], the IC50 on human TLR7 was less than 100 nM; against human TLR8, less than 100 nM; at human TLR9 it was 1000 to 50000 nM.

On to `CC(C)c1c(-c2ccnc3[nH]ncc23)[nH]c2ccc(C3CCN(Cc4ncn(C)n4)CC3)cc12` [Example 865, 4-(3-isopropyl-5-(1-((1-methyl-1H-1,2,4-triazol-3-yl)methyl)piperidin-4-yl)-1H-indol-2-yl)-1H-pyrazolo[3,4-b]pyridine], for which the results for the IC50 at human TLR7, at human TLR8 and against human TLR9 were less than 100 nM, less than 100 nM and 1000 to 50000 nM, respectively.

With `CC(=O)N1CCCN(CC(=O)N2CCC(c3ccc4[nH]c(-c5ccnc6[nH]ncc56)c(C(C)C)c4c3)CC2)CC1` [Example 586, 2-(4-acetyl-1,4-diazepan-1-yl)-1-(4-(3-isopropyl-2-(1H-pyrazolo[3,4-b]pyridin-4-yl)-1H-indol-5-yl)piperidin-1-yl)ethan-1-one], the IC50 against human TLR7 was less than 100 nM; at human TLR8, less than 100 nM; at human TLR9, 1000 to 50000 nM.

On to `Cc1cc(-c2[nH]c3ccc(C4CCNCC4)cc3c2C(C)C)c2ccccc2n1` [Example 104, 4-(3-isopropyl-5-(piperidin-4-yl)-1H-indol-2-yl)-2-methylquinoline], for which the IC50 was less than 100 nM at human TLR7, less than 100 nM at human TLR8 and 1000 to 50000 nM on human TLR9.

Take `CC(C)c1c(-c2ccn3c(=O)[nH]nc3c2)[nH]c2ccc(C3CCNCC3)cc12` [Example 199, 7-(3-isopropyl-5-(piperidin-4-yl)-1H-indol-2-yl)-[1,2,4]triazolo[4,3-a]pyridin-3(2H)-one]: the 50% inhibitory concentration (IC50) at human TLR7 is less than 100 nM; against human TLR8 it was less than 100 nM; against human TLR9, 100 to 1000 nM.

For `Cc1c(-c2ncc3[nH]ccc3n2)[nH]c2ccc(C3CCN(C4CCN(C(C)C)CC4)CC3)cc12` [Example 808, 2-(5-(1′-isopropyl-[1,4′-bipiperidin]-4-yl)-3-methyl-1H-indol-2-yl)-5H-pyrrolo[3,2-d]pyrimidine], the IC50 on human TLR7 is 1000 to 50000 nM; at human TLR8, 1000 to 50000 nM; against human TLR9 it was less than 100 nM.

For `Cc1cc(-c2[nH]c3ccc(C4CCN(C5COC5)CC4)cc3c2C(C)C)c(C)n2nnnc12` [Example 740, 6-(3-isopropyl-5-(1-(oxetan-3-yl)piperidin-4-yl)-1H-indol-2-yl)-5,8-dimethyltetrazolo[1,5-a]pyridine], the IC50 is 100 to 1000 nM against human TLR7, less than 100 nM against human TLR8 and 1000 to 50000 nM against human TLR9.

On to `CNC(=O)CN1CCC(c2ccc3[nH]c(-c4cn(C)c5ncccc45)c(C(C)C)c3c2)CC1` [Example 293, 2-(4-(3-isopropyl-2-(1-methyl-1H-pyrrolo[2,3-b]pyridin-3-yl)-1H-indol-5-yl)piperidin-1-yl)-N-methylacetamide], for which the IC50 was less than 100 nM against human TLR7, less than 100 nM against human TLR8 and 1000 to 50000 nM on human TLR9.

As to `CC(C)c1c(-c2ccc3c(O)noc3c2)[nH]c2ccc(C3CCNCC3)cc12` [Example 5, 6-(3-isopropyl-5-(piperidin-4-yl)-1H-indol-2-yl)benzo[d]isoxazol-3-ol], the half-inhibitory concentration (IC50) against human TLR7 is 100 to 1000 nM; against human TLR8 it was 1000 to 50000 nM; against human TLR9, 1000 to 50000 nM.

For `Cc1c(-c2ccnc3[nH]cc(-c4ccccc4)c23)[nH]c2ccc(C3CCNCC3)cc12` [Example 223, 4-(3-methyl-5-(piperidin-4-yl)-1H-indol-2-yl)-3-phenyl-1H-pyrrolo[2,3-b]pyridine], the concentration for half-maximal inhibition (IC50) at human TLR7 lay within 1000 to 50000 nM; on human TLR8, 1000 to 50000 nM; against human TLR9 it was 100 to 1000 nM.

On to `CNC(=O)CN1CCC(c2ccc3[nH]c(-c4cc(C(F)(F)F)c5nc(C)cn5c4)c(C(C)C)c3c2)CC1` [Example 377, 2-(4-(3-isopropyl-2-(2-methyl-8-(trifluoromethyl)imidazo[1,2-a]pyridin-6-yl)-1H-indol-5-yl)piperidin-1-yl)-N-methylacetamide], for which the 50% inhibitory concentration (IC50) on human TLR7 is less than 100 nM; on human TLR8, 100 to 1000 nM; on human TLR9, 1000 to 50000 nM.

For the molecule `CCc1c(-c2ccnc3[nH]ncc23)[nH]c2ccc(C3CCN(Cc4ncco4)CC3)cc12` [Example 867, 2-((4-(3-ethyl-2-(1H-pyrazolo[3,4-b]pyridin-4-yl)-1H-indol-5-yl)piperidin-1-yl)methyl)oxazole], the IC50 against human TLR7 was 100 to 1000 nM; at human TLR8, 100 to 1000 nM; against human TLR9, 1000 to 50000 nM.

`CC(C)c1c(-c2cc(C(F)(F)F)c3nccn3c2)[nH]c2ccc(C3CCN(C(C)C)CC3)cc12` [Example 942, 6-(3-isopropyl-5-(1-isopropylpiperidin-4-yl)-1H-indol-2-yl)-8-(trifluoromethyl)imidazo[1,2-a]pyridine]: the IC50 was less than 100 nM at human TLR7, less than 100 nM against human TLR8 and 1000 to 50000 nM against human TLR9.
